The source of these data is ChEMBL document CHEMBL5696442, “Discovery of type II inhibitors of TGFβ-activated kinase 1 (TAK1) and mitogen-activated protein kinase kinase kinase kinase 2 (MAP4K2)” (J Med Chem, 2015).

The target of assay [1] is Tyrosine-protein kinase JAK1 (Homo sapiens) (UniProt P23458). Kind of assay: Inhibition of JAK1 in human A-375 cells at 0.05 uM by KiNativ Profiling analysis relative to control. It is filed as cell-based.
In assay [2] the target is Aurora kinase B (Homo sapiens) (UniProt Q96GD4). Kind of assay: Inhibition of AURKB (unknown origin) at 10 uM by Ambit Kinomescan binding assay.
Sequence of Aurora kinase B (Homo sapiens) (Q96GD4 whole entry): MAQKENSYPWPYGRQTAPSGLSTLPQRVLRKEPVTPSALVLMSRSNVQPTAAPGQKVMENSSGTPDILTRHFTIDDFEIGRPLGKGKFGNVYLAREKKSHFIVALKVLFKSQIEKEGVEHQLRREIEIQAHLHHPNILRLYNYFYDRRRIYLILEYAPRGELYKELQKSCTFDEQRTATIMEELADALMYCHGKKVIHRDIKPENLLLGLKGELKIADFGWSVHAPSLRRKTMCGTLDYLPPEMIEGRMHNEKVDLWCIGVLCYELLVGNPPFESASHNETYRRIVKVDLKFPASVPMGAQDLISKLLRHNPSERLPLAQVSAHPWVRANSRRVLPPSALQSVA
The target of assay [3] is Mitogen-activated protein kinase 15 (Homo sapiens) (UniProt Q8TD08). Description: Inhibition of ERK8 (unknown origin) at 10 uM by Ambit Kinomescan binding assay.
Sequence of Mitogen-activated protein kinase 15 (Homo sapiens) (Q8TD08 whole entry): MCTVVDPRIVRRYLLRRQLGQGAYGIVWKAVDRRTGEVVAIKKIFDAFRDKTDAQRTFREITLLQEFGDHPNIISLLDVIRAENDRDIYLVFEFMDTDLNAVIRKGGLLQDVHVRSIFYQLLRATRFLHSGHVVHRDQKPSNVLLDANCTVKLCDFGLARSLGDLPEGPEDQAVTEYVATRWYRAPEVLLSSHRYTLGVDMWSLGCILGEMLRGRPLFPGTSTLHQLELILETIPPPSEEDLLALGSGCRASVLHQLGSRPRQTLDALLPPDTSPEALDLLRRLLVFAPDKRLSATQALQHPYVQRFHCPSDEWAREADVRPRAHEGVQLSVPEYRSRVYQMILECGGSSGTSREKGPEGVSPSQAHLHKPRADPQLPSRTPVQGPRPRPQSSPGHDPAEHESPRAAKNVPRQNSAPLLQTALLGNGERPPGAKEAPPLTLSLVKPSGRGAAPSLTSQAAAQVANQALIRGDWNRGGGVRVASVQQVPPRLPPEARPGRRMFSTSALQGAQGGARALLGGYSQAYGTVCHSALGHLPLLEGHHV
In assay [4] the test system is Receptor-type tyrosine-protein kinase FLT3 (Homo sapiens), P36888 [D835Y]. Kind of assay: Inhibition of FLT3 D835Y mutant (unknown origin) at 10 uM by Ambit Kinomescan binding assay relative to control.
In assay [5] the target is Serine/threonine-protein kinase 26 (Homo sapiens) (UniProt Q9P289). Description: Inhibition of MST4 K1 labeling site in human Huh-7 cells at 1 uM by KiNativ Profiling analysis relative to control. Type of assay: cell-based.
Sequence of Serine/threonine-protein kinase 26 (Homo sapiens) (Q9P289 2-416 limits assumed): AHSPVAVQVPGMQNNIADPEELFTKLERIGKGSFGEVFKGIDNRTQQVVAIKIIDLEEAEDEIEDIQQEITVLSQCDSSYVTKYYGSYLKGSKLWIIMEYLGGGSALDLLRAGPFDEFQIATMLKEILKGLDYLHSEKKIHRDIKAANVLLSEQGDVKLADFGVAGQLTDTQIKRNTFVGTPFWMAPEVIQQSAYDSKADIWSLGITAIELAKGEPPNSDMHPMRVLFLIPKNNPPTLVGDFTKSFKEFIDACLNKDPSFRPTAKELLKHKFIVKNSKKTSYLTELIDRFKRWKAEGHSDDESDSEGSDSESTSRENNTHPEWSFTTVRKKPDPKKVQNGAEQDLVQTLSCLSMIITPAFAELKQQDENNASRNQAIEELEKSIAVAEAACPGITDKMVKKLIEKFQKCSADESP
Assay [6] has as its target T1, Serine/threonine-protein kinase TAO2 (Homo sapiens) (UniProt Q9UL54).
T1 sequence (whole entry): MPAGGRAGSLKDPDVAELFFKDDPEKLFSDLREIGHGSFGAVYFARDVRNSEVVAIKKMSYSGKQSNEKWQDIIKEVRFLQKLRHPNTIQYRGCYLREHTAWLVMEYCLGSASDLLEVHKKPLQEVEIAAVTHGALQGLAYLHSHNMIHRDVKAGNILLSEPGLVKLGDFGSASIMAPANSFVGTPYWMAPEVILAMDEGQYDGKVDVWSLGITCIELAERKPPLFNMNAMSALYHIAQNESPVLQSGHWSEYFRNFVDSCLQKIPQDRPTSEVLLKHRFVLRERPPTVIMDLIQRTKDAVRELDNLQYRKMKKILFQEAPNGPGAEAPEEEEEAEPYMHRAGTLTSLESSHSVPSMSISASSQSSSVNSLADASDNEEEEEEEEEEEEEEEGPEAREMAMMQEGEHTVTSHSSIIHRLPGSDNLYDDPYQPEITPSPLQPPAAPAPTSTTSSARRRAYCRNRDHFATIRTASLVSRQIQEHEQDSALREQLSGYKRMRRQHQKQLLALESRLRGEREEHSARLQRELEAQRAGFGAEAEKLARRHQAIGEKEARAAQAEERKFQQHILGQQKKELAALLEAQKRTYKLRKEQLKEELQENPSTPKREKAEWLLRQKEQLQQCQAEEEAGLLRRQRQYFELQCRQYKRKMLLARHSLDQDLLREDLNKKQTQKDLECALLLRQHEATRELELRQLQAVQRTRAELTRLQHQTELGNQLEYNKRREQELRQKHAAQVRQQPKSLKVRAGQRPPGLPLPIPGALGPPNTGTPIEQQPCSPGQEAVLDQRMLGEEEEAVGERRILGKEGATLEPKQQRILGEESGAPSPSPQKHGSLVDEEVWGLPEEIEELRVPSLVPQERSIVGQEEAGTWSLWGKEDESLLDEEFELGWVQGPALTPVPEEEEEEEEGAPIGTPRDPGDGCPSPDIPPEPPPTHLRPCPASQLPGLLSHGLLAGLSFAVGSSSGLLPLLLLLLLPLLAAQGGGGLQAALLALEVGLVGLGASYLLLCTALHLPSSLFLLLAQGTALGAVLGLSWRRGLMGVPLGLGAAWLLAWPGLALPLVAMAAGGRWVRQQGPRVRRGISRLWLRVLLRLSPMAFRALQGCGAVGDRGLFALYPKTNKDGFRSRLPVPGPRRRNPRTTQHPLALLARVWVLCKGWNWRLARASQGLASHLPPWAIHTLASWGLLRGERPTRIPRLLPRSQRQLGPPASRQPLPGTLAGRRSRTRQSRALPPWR
Kind of assay: Inhibition of TAO2 K2 labeling site in human Huh-7 cells at 1 uM by KiNativ Profiling analysis relative to control. Type of assay: cell-based.

Assay [7] deals with Peripheral plasma membrane protein CASK (Homo sapiens) (UniProt O14936). Kind of assay: Inhibition of CASK K1 labeling site in human Huh-7 cells at 10 uM by KiNativ Profiling analysis relative to control.
Assay [8] deals with T2, Dual specificity mitogen-activated protein kinase kinase 4 (Homo sapiens) (UniProt P45985).
T2 sequence (whole entry): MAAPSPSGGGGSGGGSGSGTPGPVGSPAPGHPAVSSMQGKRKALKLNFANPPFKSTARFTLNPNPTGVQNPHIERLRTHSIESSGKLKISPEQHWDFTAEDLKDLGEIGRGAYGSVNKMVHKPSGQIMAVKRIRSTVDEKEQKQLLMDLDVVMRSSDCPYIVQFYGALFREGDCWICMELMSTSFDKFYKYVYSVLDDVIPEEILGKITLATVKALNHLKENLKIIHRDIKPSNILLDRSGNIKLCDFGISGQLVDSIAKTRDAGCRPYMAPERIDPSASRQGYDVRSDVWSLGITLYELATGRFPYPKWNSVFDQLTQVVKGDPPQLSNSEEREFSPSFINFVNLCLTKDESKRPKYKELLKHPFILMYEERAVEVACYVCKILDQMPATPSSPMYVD
Kind of assay: Inhibition of MAP2K4 ACT labeling site in human Huh-7 cell lysate at 1 uM by KiNativ Profiling analysis relative to control. Type of assay: subcellular.

The target in assay [9] is T3, Serine/threonine-protein kinase 3 (Homo sapiens) (UniProt Q13188).
T3 sequence (whole entry): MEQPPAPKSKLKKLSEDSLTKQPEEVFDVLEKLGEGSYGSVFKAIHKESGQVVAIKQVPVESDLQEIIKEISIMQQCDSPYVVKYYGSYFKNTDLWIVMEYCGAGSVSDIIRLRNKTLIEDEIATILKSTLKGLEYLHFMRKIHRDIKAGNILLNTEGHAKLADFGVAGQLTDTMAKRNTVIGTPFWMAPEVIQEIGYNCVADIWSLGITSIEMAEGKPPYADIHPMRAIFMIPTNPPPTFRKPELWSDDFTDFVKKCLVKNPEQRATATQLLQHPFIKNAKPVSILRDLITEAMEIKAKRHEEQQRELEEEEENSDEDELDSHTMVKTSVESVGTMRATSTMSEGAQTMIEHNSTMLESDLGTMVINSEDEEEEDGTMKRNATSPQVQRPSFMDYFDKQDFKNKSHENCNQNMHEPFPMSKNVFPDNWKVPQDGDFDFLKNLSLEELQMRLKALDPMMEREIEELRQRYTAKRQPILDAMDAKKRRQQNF
Kind of assay: Inhibition of MST2 Lys2 labeling site harbouring IHRDIKAGNILLNTEGHAK in human Huh-7 cell lysate at 1 uM by KiNativ Profiling analysis relative to control. It is filed as subcellular.

The target of assay [10] is Serine/threonine-protein kinase WNK2 (Homo sapiens) (UniProt Q9Y3S1). Kind of assay: Inhibition of Wnk2 ACT labeling site in human Huh-7 cell lysate at 1 uM by KiNativ Profiling analysis relative to control. Type of assay: subcellular.
Sequence of Serine/threonine-protein kinase WNK2 (Homo sapiens) (Q9Y3S1 whole entry): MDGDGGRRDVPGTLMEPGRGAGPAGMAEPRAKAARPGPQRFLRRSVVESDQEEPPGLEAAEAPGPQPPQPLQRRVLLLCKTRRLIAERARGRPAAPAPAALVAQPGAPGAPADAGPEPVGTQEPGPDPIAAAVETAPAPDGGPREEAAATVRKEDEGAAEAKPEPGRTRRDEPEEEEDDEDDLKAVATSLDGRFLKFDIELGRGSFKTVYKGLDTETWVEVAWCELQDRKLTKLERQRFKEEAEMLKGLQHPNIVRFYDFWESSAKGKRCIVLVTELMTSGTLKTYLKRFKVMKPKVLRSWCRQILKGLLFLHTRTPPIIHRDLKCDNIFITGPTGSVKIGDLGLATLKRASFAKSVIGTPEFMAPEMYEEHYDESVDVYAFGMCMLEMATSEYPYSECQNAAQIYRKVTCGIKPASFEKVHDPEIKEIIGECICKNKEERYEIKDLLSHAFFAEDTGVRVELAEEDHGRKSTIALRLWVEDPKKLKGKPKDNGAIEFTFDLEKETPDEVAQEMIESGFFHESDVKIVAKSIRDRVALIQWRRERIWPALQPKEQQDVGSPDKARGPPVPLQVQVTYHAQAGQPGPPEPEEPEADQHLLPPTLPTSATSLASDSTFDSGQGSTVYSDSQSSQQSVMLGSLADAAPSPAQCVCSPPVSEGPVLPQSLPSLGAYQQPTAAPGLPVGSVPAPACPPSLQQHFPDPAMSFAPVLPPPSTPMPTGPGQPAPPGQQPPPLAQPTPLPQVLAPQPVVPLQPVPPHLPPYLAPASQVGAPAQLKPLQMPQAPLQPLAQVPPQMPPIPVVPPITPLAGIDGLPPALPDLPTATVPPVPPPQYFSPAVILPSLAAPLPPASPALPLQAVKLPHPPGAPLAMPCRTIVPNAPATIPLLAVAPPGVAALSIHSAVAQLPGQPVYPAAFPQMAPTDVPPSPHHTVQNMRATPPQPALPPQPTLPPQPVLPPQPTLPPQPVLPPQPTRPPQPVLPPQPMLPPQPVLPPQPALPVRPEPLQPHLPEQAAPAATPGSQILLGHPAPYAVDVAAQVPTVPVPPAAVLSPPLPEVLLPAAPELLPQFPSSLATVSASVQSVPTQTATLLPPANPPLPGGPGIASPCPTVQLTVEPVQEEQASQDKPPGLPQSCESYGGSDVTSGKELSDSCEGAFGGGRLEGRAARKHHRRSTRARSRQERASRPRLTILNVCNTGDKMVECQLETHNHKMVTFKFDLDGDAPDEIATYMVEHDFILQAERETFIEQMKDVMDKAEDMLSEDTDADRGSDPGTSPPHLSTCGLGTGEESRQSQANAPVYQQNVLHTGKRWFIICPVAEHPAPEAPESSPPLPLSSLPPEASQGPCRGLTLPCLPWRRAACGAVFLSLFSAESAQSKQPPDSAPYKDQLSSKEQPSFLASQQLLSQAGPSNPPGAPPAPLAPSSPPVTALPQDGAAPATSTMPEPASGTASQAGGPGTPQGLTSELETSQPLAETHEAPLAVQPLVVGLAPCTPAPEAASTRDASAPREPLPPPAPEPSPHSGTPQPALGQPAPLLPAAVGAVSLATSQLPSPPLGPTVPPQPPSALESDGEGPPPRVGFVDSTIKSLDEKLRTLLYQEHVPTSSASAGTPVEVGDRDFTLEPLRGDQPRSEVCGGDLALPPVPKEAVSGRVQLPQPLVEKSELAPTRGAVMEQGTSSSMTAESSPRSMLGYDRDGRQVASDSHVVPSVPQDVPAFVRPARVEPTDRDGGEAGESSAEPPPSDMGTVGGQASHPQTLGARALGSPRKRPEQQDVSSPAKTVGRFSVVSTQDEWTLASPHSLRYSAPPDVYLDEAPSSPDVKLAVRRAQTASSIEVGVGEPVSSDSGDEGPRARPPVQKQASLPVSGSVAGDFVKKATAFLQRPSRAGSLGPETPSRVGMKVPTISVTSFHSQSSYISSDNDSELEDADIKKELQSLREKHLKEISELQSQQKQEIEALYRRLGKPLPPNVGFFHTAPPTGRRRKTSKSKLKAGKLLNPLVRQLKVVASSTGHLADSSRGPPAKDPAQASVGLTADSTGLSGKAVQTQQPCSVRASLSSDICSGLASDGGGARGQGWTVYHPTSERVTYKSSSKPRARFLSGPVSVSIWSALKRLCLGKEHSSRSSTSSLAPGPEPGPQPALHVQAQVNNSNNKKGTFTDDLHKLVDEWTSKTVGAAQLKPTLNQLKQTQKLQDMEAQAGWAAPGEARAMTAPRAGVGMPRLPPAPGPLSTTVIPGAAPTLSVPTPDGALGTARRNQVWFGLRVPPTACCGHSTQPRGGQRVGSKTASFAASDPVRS
The target in assay [11] is T3, Serine/threonine-protein kinase 3 (Homo sapiens). Kind of assay: Inhibition of MST2 Lys2 labeling site harbouring IHRDIKAGNILLNTEGHAK in human Huh-7 cells at 1 uM by KiNativ Profiling analysis relative to control. It is filed as cell-based.

Active and inactive are the calls of the source. The rule behind the calls is not given here.

Sequence of Tyrosine-protein kinase JAK1 (Homo sapiens) (P23458 whole entry): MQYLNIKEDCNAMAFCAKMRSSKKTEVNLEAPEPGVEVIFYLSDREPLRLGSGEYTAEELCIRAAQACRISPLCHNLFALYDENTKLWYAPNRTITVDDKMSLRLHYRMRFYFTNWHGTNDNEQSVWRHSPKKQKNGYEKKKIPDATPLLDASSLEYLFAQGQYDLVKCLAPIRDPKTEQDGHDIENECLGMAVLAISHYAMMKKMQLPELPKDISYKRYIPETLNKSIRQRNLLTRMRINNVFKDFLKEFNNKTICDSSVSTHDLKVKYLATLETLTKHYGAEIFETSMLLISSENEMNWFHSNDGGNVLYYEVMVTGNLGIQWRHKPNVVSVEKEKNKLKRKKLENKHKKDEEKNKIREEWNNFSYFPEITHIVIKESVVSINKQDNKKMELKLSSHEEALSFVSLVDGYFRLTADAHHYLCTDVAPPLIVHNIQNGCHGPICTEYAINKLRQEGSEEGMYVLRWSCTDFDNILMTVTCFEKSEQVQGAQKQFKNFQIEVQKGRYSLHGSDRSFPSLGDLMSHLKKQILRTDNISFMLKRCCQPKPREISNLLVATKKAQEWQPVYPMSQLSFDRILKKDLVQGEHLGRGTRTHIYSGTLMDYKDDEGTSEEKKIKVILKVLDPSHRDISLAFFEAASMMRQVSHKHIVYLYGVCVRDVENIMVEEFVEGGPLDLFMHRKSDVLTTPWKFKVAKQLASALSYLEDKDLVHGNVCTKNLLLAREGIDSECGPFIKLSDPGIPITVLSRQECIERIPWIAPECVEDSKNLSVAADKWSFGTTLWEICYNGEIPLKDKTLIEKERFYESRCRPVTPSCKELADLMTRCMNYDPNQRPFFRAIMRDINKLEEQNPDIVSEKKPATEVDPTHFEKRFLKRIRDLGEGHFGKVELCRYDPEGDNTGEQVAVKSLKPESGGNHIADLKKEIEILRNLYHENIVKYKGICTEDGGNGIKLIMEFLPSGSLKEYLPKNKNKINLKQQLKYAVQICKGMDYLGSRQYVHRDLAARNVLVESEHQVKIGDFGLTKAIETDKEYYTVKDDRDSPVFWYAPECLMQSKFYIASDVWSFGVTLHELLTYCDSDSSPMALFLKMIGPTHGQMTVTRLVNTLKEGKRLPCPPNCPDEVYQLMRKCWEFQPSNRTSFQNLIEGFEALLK

For `CCN1CCN(Cc2ccc(NC(=O)c3ccc(C)c(/C=C/c4cnc5[nH]ccc5c4OC)c3)cc2C(F)(F)F)CC1`, the inhibition in [1] stood at 12.3%.
Take `CCN1CCN(Cc2ccc(NC(=O)c3ccc(C)c(Oc4ccnc5[nH]ccc45)c3)cc2C(F)(F)F)CC1`: the inhibition entry in assay [2] and in [3] was “inactive” each time. Also, the inhibition in assay [4] came out at 14%; in [5], 5.3%; in assay [6], 4.7%; in assay [7], 12%.
As to `CNc1cc(Oc2cc(C(=O)Nc3cc(N4CCN(C)CC4)cc(C(F)(F)F)c3)ccc2C)ncn1`, the inhibition was -2.8% in assay [8], 14.4% in assay [9], -6.9% in [10] and -0.8% in assay [11].
